In assay [1] the target is Beta Secretase enzyme (BACE) (Homo sapiens, UniProt P56817). Nature of the assay: In vitro enzymatic BACE FRET (fluorescence resonance energy transfer) assay. The class given is biochemical. The conditions noted are these: for pIC50: average IC50, enzyme assay, read-out: BACE 1 FRET assay; for IC50: BACE 1 FRET assay (uM). A digest of the protocol: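 Run in 0.05 M acetate pH 4.2 with 10% DMSO final and 100 uM genapol; started by adding 50 nM FRET peptide substrate (fluorophore and quencher flanking the cleavage site), incubated one hour, then stopped with Tris to neutral pH before reading fluorescence.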
Chain of Beta Secretase enzyme (BACE) (P56817 46-501, species assumed): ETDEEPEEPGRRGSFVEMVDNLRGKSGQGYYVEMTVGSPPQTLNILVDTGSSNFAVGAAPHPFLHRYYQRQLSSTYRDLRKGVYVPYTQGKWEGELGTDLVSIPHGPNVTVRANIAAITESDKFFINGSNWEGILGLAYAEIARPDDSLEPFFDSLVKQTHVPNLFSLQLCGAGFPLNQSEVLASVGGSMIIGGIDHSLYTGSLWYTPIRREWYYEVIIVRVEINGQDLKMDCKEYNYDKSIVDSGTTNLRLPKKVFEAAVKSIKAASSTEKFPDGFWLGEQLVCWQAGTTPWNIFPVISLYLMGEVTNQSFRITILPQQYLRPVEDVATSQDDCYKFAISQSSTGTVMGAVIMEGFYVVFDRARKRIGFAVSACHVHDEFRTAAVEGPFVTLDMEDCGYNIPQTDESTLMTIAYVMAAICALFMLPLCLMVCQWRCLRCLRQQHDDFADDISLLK

Assay [2] has as its system Aβ40 in conditioned medium of cells stably expressing Amyloid Precursor Protein (APP). Nature of the assay: In vitro BACE cell-based assay (Aβ40 in conditioned medium, sandwich ELISA). The conditions noted are these: for pIC50: read-out: HEK cell assay. A digest of the protocol: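 Secreted Aβ40 is captured with pAb40 and detected with biotinylated 6E10, read by europium time-resolved fluorescence. IC50 comes from percent inhibition versus concentration.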
On the technique in general: An ELISA detects its analyte on a solid surface through an enzyme-linked reagent.

Where [3] appears, read: Homo sapiens, HEK293, average IC50.
Where [4] appears, read: Homo sapiens, HEK293, average IC50, HEK cells.

pIC50: −log10 of the molar value. Read-outs that look alike come from different tables or passages of the source.

One may read the IC50 as the concentration that gives 50% inhibition.

As to `COc1cc(F)c2c(c1)[C@]1(COC(N)=N1)c1cc(-c3cncc(C#CC4(C)COC4)c3)ccc1O2` [Example 821, (4S)-4′-fluoro-2′-methoxy-7′-(5-((3-methyl-3-oxetanyl)ethynyl)-3-pyridinyl)spiro[1,3-oxazole-4,9′-xanthen]-2-amine], the pIC50 in assay [1] is 7.29; in assay [2] (setting [3]), 5.54.

`COc1ccc(-c2cc3c(cn2)Oc2ccc(-c4cccnc4F)cc2[C@@]32COC(N)=N2)cc1F` [Example 533, (5S)-3-(3-fluoro-4-methoxyphenyl)-7-(2-fluoro-3-pyridinyl)spiro[chromeno[2,3-c]pyridine-5,4′-[1,3]oxazol]-2′-amine]: the IC50 in assay [1] came to 0.0014 µM; in assay [2] (Homo sapiens, HEK293, read-out: HEK cell assay (uM), average IC50, HEK cells) it was 0.0235 µM.

Regarding `NC1=N[C@]2(CS1)c1cc(Br)ccc1Oc1cnc(Cl)cc12` [Example 993, (5R)-7-bromo-3-chlorospiro[chromeno[2,3-c]pyridine-5,4′-[1,3]thiazol]-2′-amine], the pIC50 was 4.94 in assay [1] and no more than 5.00 in assay [2] (setting [3]).

As to `CC1(C#Cc2cc3c(nc2F)Oc2ccc(-c4cccnc4F)cc2[C@]32COC(N)=N2)COC1` [Example 900, (5R)-2-fluoro-7-(2-fluoro-3-pyridinyl)-3-((3-methyl-3-oxetanyl)ethynyl)spiro[chromeno[2,3-b]pyridine-5,4′-[1,3]oxazol]-2′-amine], the pIC50 is 7.32 in assay [1] and 5.94 in assay [2] (setting [4]).

For the compound `COc1ncc(Cl)cc1-c1ccc2c(c1)[C@@]1(COC(N)=N1)c1cc(C3=CCOCC3)ncc1O2` [Example 235, (5S)-7-(5-chloro-2-methoxy-3-pyridinyl)-3-(3,6-dihydro-2H-pyran-4-yl)spiro[chromeno[2,3-c]pyridine-5,4′-[1,3]oxazol]-2′-amine], the pIC50 in assay [1] was 8.92; in assay [2] (setting [3]), 7.83.

`Cc1ccnn1-c1cc(F)c2c(c1)[C@]1(COC(N)=N1)c1cc(-c3cncnc3)ccc1O2` [Example 636, (4S)-4′-fluoro-2′-(5-methyl-1H-pyrazol-1-yl)-7′-(5-pyrimidinyl)spiro[1,3-oxazole-4,9′-xanthen]-2-amine]: the pIC50 is 7.54 in assay [1] and 6.56 in assay [2] (setting [4]).

For `CC1(COc2cc3c(cc2F)Oc2ccc(-c4cccc(C#N)c4)cc2[C@@]32COC(N)=N2)COC1` [Example 331, 3-((4S)-2-amino-6′-fluoro-7′-((3-methyl-3-oxetanyl)methoxy)spiro[1,3-oxazole-4,9′-xanthen]-2′-yl)benzonitrile], the pIC50 was 7.86 in assay [1] and 7.07 in assay [2] (setting [3]).

As to `NC1=N[C@]2(CO1)c1cc(C3=CCOCC3)ccc1Oc1ccc(-c3cnccn3)cc12` [Example 192, (4R)-2′-(3,6-dihydro-2H-pyran-4-yl)-7′-(2-pyrazinyl)spiro[1,3-oxazole-4,9′-xanthen]-2-amine], the pIC50 in assay [1] is 7.88; in assay [2] (setting [3]) it was 7.46.

Consider `NC1=N[C@@]2(CO1)c1cc(-c3ccc(F)cc3)ccc1Oc1cnc(-c3cncnc3)cc12` [Example 396, (5S)-7-(4-fluorophenyl)-3-(5-pyrimidinyl)spiro[chromeno[2,3-c]pyridine-5,4′-[1,3]oxazol]-2′-amine], for which the values for the pIC50 in assay [1] and in assay [2] (setting [4]) were 6.87 and 5.97, respectively.

As for `CC1(C)C[C@@H](c2cc3c(cn2)Oc2ccc(-c4ccc(F)nc4)cc2[C@@]32COC(N)=N2)CCO1` [Example 379, (5S)-3-((4S)-2,2-dimethyltetrahydro-2H-pyran-4-yl)-7-(6-fluoro-3-pyridinyl)spiro[chromeno[2,3-c]pyridine-5,4′-[1,3]oxazol]-2′-amine], the pIC50 was 7.63 in assay [1] and 6.75 in assay [2] (setting [3]).

With `COc1nc(-c2ccnc(F)c2)cc2c1Oc1ccc(-c3cccnc3F)cc1[C@@]21COC(N)=N1` [Example 831, (5S)-7-(2-fluoro-3-pyridinyl)-3-(2-fluoro-4-pyridinyl)-1-methoxyspiro[chromeno[2,3-c]pyridine-5,4′-[1,3]oxazol]-2′-amine], the pIC50 is 8.96 in assay [1] and 7.15 in assay [2] (setting [3]).

As to `CC1(C)CC(=O)N(c2cc(F)c3c(c2)[C@]2(COC(N)=N2)c2cc(-c4cccnc4)ccc2O3)C1` [Example 798, 1-((4S)-2-amino-4′-fluoro-7′-(3-pyridinyl)spiro[1,3-oxazole-4,9′-xanthen]-2′-yl)-4,4-dimethyl-2-pyrrolidinone], the pIC50 in assay [1] is 8.85; in assay [2] (setting [3]), 8.10.

`NC1=N[C@@]2(CO1)c1cc(O)ccc1Oc1c(F)cc(-n3cccn3)cc12` [Example 665, (4S)-2-amino-5′-fluoro-7′-(1H-pyrazol-1-yl)spiro[1,3-oxazole-4,9′-xanthen]-2′-ol]: the pIC50 was 5.96 in assay [1] and 5.34 in assay [2] (setting [4]).

Turning to `NC1=N[C@]2(CS1)c1cc(I)ccc1Oc1ncc(Br)cc12` [Example 579, (5R)-3-bromo-7-iodospiro[chromeno[2,3-b]pyridine-5,4′-[1,3]thiazol]-2′-amine], the pIC50 in assay [1] was 5.72; in assay [2] (setting [4]), 5.50.

In the case of `CC1(C#Cc2cnc3c(c2)[C@@]2(COC(N)=N2)c2c(ccc(-c4cccnc4F)c2F)O3)COC1` [Example 341, (5S)-6-fluoro-7-(2-fluoro-3-pyridinyl)-3-((3-methyl-3-oxetanyl)ethynyl)spiro[chromeno[2,3-b]pyridine-5,4′-[1,3]oxazol]-2′-amine], the pIC50 in assay [1] was 6.81; in assay [2] (setting [3]), 6.25.

In the case of `NC1=N[C@]2(CO1)c1cc(-c3cccnc3F)ccc1Oc1c2cc(C2=CCOCC2)c(F)c1F` [Example 1010, (4R)-2′-(3,6-dihydro-2H-pyran-4-yl)-3′,4′-difluoro-7′-(2-fluoro-3-pyridinyl)spiro[1,3-oxazole-4,9′-xanthen]-2-amine], the pIC50 in assay [1] was 8.03; in assay [2] (setting [3]), 6.19.

As for `NC1=N[C@@]2(CO1)c1cc(-c3cccc(Cl)c3)ccc1Oc1ncc(-c3cnccn3)cc12` [Example 166, (5S)-7-(3-chlorophenyl)-3-(2-pyrazinyl)spiro[chromeno[2,3-b]pyridine-5,4′-[1,3]oxazol]-2′-amine], the results for the pIC50 in assay [1] and in assay [2] (setting [3]) were 8.74 and 7.75, respectively.

As to `COC1CN(c2cc(F)c3c(c2)[C@]2(COC(N)=N2)c2cc(-c4cccnc4F)ccc2O3)C1` [Example 281, (4S)-4′-fluoro-7′-(2-fluoro-3-pyridinyl)-2′-(3-methoxy-1-azetidinyl)spiro[1,3-oxazole-4,9′-xanthen]-2-amine], the pIC50 in assay [1] was 8.70; in assay [2] (setting [3]), 8.27.

On to `COc1nc(C2=CCOCC2)cc2c1Oc1ccc(-c3cccnc3F)cc1[C@@]21COC(N)=N1` [Example 832, (5S)-3-(3,6-dihydro-2H-pyran-4-yl)-7-(2-fluoro-3-pyridinyl)-1-methoxyspiro[chromeno[2,3-c]pyridine-5,4′-[1,3]oxazol]-2′-amine], for which the IC50 in assay [1] is 0.0007 µM; in assay [2] (Homo sapiens, HEK293, read-out: HEK cell assay (uM), average IC50, HEK cell assay), 0.032 µM.

For `NC1=N[C@@]2(CO1)c1cc(OCc3ccc(Br)cc3)ccc1Oc1ncc(-c3cccnc3)cc12` [Example 980, (5S)-7-((4-bromobenzyl)oxy)-3-(3-pyridinyl)spiro[chromeno[2,3-b]pyridine-5,4′-[1,3]oxazol]-2′-amine], the pIC50 in assay [1] is 7.34; in assay [2] (setting [3]) it was 6.47.

As to `NC1=N[C@@]2(CO1)c1cc(-c3cccnc3F)ccc1Oc1c(F)cc(-n3cccn3)cc12` [Example 691, (4S)-4′-fluoro-7′-(2-fluoro-3-pyridinyl)-2′-(1H-pyrazol-1-yl)spiro[1,3-oxazole-4,9′-xanthen]-2-amine], the pIC50 in assay [1] was 8.70; in assay [2] (setting [4]), 7.20.

For the compound “(4S)-4′-fluoro-7′-(2-fluoro-3-pyridinyl)-2′-((2R)-tetrahydro-2H-pyran-2-yl)spiro[1,3-oxazole-4,9′-xanthen]-2-amine [Example 220]”, the pIC50 in assay [1] was 8.80; in assay [2] (average IC50), 7.89.

Consider `NC1=N[C@]2(CO1)c1cc(C3=CCOCC3)ccc1Oc1ccc(-c3cncc(F)c3)cc12` [Example 193, (4R)-2′-(3,6-dihydro-2H-pyran-4-yl)-7′-(5-fluoro-3-pyridinyl)spiro[1,3-oxazole-4,9′-xanthen]-2-amine], for which the pIC50 in assay [1] is 8.12; in assay [2] (setting [3]), 7.74.

In the case of `NC1=N[C@@]2(CS1)c1cc(-c3cncc(F)c3)ccc1Oc1ncc(C3=CCCOC3)cc12` [Example 770, (5S)-3-(5,6-dihydro-2H-pyran-3-yl)-7-(5-fluoro-3-pyridinyl)spiro[chromeno[2,3-b]pyridine-5,4′-[1,3]thiazol]-2′-amine], the pIC50 in assay [1] was 9.22; in assay [2] (setting [3]) it was 8.00.

For the compound `CC1(C)C[C@@H](c2cc(F)c3c(c2)[C@]2(COC(N)=N2)c2cc(-c4cnccn4)ccc2O3)CCO1` [Example 449, (4S)-2′-((4S)-2,2-dimethyltetrahydro-2H-pyran-4-yl)-4′-fluoro-7′-(2-pyrazinyl)spiro[1,3-oxazole-4,9′-xanthen]-2-amine], the pIC50 is 8.43 in assay [1] and 7.70 in assay [2] (setting [4]).

For the compound `CC(C)(C)C#Cc1cc2c(cn1)Oc1cc(F)c(-c3cncnc3)cc1[C@@]21COC(N)=N1` [Example 305, (5S)-3-(3,3-dimethyl-1-butyn-1-yl)-8-fluoro-7-(5-pyrimidinyl)spiro[chromeno[2,3-c]pyridine-5,4′-[1,3]oxazol]-2′-amine], the pIC50 was 8.00 in assay [1] and 7.02 in assay [2] (setting [3]).

In the case of `COc1cc(F)c2c(c1)[C@]1(COC(N)=N1)c1cc(-c3cncc(C#CCO)c3)ccc1O2` [Example 820, 3-(5-((4S)-2-amino-5′-fluoro-7′-methoxyspiro[1,3-oxazole-4,9′-xanthen]-2′-yl)-3-pyridinyl)-2-propyn-1-ol], the pIC50 in assay [1] was 8.96; in assay [2] (setting [3]) it was 7.68.
